Laboratory results published in US6653354B2, “NMDA antagonist comprising xenon” (priority 1999, dated 2003).
Entries after “also recorded” stand apart in the source; their conditions may differ.

Legend:
[1] = target: T1, GABAA receptors (Bos taurus, UniProt P08219+P08220+P22300); assay: Currents activated by GABA in voltage-clamped PA3 cells stably expressing defined GABA subunits; assay type: cell-based; settings: 100% xenon
T1 construct: expressed in transfected cells
T1 sequence (P08219 28-456): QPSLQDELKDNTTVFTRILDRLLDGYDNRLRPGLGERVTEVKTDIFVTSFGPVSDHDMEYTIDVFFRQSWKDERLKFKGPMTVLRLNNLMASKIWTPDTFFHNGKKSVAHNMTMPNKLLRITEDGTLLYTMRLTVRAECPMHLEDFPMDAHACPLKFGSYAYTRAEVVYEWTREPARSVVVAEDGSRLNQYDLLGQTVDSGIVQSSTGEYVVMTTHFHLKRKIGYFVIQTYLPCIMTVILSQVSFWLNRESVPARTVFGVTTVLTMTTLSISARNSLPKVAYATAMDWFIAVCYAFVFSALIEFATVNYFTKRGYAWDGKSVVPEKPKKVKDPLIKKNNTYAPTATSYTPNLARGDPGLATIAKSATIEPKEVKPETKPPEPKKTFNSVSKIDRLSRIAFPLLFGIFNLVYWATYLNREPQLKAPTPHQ
T1 sequence (P08220 26-474): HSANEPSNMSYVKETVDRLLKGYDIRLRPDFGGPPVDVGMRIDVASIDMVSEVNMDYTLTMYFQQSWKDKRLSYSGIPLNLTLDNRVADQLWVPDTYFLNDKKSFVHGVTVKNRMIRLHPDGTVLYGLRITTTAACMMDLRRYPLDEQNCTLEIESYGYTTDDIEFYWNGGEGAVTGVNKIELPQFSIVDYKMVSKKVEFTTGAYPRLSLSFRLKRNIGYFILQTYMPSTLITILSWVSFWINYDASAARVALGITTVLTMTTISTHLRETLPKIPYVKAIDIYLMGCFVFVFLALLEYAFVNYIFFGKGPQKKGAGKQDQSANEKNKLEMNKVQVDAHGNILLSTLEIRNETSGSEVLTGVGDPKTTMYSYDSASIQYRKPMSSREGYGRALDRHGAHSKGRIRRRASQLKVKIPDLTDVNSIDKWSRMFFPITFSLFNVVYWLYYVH
T1 sequence (P22300 40-475): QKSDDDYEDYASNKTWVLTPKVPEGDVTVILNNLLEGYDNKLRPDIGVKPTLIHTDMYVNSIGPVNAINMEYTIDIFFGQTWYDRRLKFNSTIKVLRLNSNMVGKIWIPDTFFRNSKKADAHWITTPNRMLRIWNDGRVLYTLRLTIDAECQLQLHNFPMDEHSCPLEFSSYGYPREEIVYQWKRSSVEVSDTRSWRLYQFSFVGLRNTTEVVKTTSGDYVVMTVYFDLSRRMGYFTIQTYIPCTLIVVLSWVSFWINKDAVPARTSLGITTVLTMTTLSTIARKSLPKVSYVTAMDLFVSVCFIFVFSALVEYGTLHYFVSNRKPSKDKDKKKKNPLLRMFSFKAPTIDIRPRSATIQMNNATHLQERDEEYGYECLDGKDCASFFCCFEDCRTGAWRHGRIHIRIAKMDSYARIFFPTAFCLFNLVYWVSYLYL
Excerpt: Studies carried out by the applicant have shown that xenon has virtually no effect on GABAA receptors.

[2] = test system: NMDA receptors; assay type: cell-based, rat; settings: 80% xenon
[3] = test system: cortical neuronal-glial co-culture injured with glutamate; assay: Glutamate-induced neuronal injury in neuronal-glial co-culture (LDH release); assay type: cell-based, mouse
Procedure: Dissociated murine cortical cell cultures were prepared using whole cerebral neocortices from fetal mice (14-17 days of gestation). Cortical glial cell cultures were prepared from early postnatal mice. After halting non-neuronal cell division with cytosine arabinoside the surviving cortical neuronal cells were plated onto the glial cell background and co-cultured.
15 days after originally harvesting the cortical cells, the co-culture plates were exposed at room temperature to glutamate 10-1,000 μM, in CCS from 10-30 minutes. After carefully washing out with CCS, the cells were incubated for 6-24 hours in a Eagle's minimal essential medium free of glutamate or lactate dehydrogenase (LDH) but supplemented with glucose 25 mM, and NaHCO3 38 mM at 37° C. in humidified CO2 (5%) atmosphere. The degree of injury was determined by measuring the LDH released into the medium. A dose-response curve of glutamate-induced injury is shown in FIG. 11, as described hereinbefore.
75% of one atmosphere of xenon was delivered to the cells during and after exposure to 75 μM glutamate, a concentration which produces a near maximal injury. The degree of injury was determined by measuring the LDH released into the medium (after correcting for “baseline” LDH release). Xenon reduced the injury produced by glutamate by more than 35%; when xenon was continued after glutamate exposure, the injury was further reduced by more than 60%. The results of the protective effect of xenon are illustrated in FIG. 13, as described hereinbefore.

[4] = test system: c Fos expression in arcuate nucleus of hypothalamus; assay: c Fos expression in arcuate nucleus after NMA (inhibition of synaptic plasticity in vivo); design: species or system Sprague Dawley female adult rats; settings: 75% Xe + NMA 100 mg/kg s.c.
Excerpt: With exposure to NMA neuronal activation is enhanced (E vs A) which is indicative of synaptic plasticity. In the presence of both Xenon (D) and MK 801 (B), synaptic plasticity induced by NMA is inhibited. […] This is sometimes referred to as long term potentiation, an example of synaptic plasticity. […] The attenuation of c Fos expression is a reflection of the inhibition of synaptic plasticity.

[5] = test system: rats; assay: MAC in rats; assay type: in vivo; settings: 37° C.
Procedure: The gaseous concentration of xenon which prevents a response to a painful stimulus (i.e. MAC) appears to vary among species, being 71% atm in humans (Cullen SC et al, Anesthesiology 1969, 31:305-309), 98% atm in rhesus monkeys (Whitehurst S L et al, J. Neurosurg. Anesthesiol. 1994, 6:275-279) and 161% atm in rats (Koblin D D et al, Anesth. Analg. 1998, 87:419-424). When these values are converted to free aqueous concentrations at 37° C. (Franks N P et al, Br. J. Anaesth. 1993, 71:65-76; Franks N P et al, Anesthesiology, 1996, 84:716-720) using an Ostwald water/gas partition coefficient of 0.0887 (Weathersby P K et al, Undersea Biomed. Res. 1980, 7:277-296), the values obtained are 2.5 mM, 3.4 mM and 5.6 mM for humans, monkeys and rats respectively, with the average value being 3.8 mM. For the experiments described herein, performed at room temperature, the concentration of xenon present in the standard test solution was 3.4 mM. […] This is illustrated with representative traces in FIG. 2.

[6] = test system: humans; settings: cited from earlier work
[7] = test system: rhesus monkeys; settings: cited from earlier work

[Xe] [xenon]
effect on currents activated by 3 μM GABA [1]: not significantly affected
change of NMDA EC50 or Hill coefficient in presence of xenon [2]: no significant change; also recorded: does not significantly change
protection against excitotoxicity (LDH release) ([3]; 100 μM glutamate for 10 minutes, low, sub-anaesthetic concentrations of xenon, LDH after 6 hours): Highly significant protection
reduction of the injury produced by glutamate (LDH release) ([3]; 75% of one atmosphere xenon during exposure to 75 μM glutamate): more than 35%
reduction of the injury produced by glutamate (LDH release) ([3]; 75% xenon continued after 75 μM glutamate exposure): more than 60%
synaptic plasticity induced by NMA (c Fos expression) [4]: is inhibited
MAC converted to free aqueous concentration [5]: 5.6 mM
half maximal effective concentration EC50 as a human anaesthetic ([6]; human): 71 % v/v
gaseous concentration which prevents a response to a painful stimulus (MAC) ([6]; humans): 71 % atm
gaseous concentration which prevents a response to a painful stimulus (MAC) [7]: 98 % atm
